In brackets after ≈: the same amount, converted by molar mass.
What was measured:
[1] = system: Ciprofloxacin-Susceptible P. aeruginosa; assay: In vitro antimicrobial susceptibility (MIC), Ciprofloxacin-Susceptible P. aeruginosa; format: cell-based; conditions: 14 isolates; for MIC Range: in µg/mL (unit assumed)
Method: (§1) A finafloxacin solution composition at pH 5.8 and 7.3 was compared to ciprofloxacin and ofloxacin compositions using standard in vitro antimicrobial susceptibility tests (M07-08 Methods for Dilution Antimicrobial Susceptibility Tests for Bacteria that Grow Aerobically; Approved Standard-Eighth Edition (January 2009, Clinical and Laboratory Standards Institute), herein incorporated by reference). Minimum inhibitory concentrations (MIC50) were determined using organisms commonly found in otic and ophthalmic infections. The MIC50 was the lowest concentration of antibiotic that prevented growth of the test organism, as determined visually by a lack of turbidity.
(§2) The results of the experiment are presented below in TABLES 1-5. At acidic pH, finafloxacin generally had greater activity against both Gram-positive and Gram-negative organisms than the fluoroquinolones ciprofloxacin and ofloxacin, both of which are used for the treatment of otic infections. Higher activity under acidic conditions is important for an otic formulation since a low pH formulation is preferred to slow bacterial and fungal growth, as well as the fact the pH environment of the external ear canal is ˜pH 6.

[2] = system: Ciprofloxacin-Resistant P. aeruginosa; assay: In vitro antimicrobial susceptibility (MIC), Ciprofloxacin-Resistant P. aeruginosa; format: cell-based; conditions: 11 isolates; for MIC Range: in µg/mL (unit assumed)
Method: as §1, §2

[3] = system: Ciprofloxacin-Resistant S. aureus; assay: In vitro antimicrobial susceptibility (MIC), Ciprofloxacin-Resistant S. aureus; format: cell-based; conditions: 12 isolates; for MIC50 / MIC90: unit assumed; for MIC Range: in µg/mL (unit assumed)
Method: as §1, §2

[4] = system: Ciprofloxacin-Susceptible S. aureus; assay: In vitro antimicrobial susceptibility (MIC), Ciprofloxacin-Susceptible S. aureus; format: cell-based; conditions: 8 isolates; for MIC Range: in µg/mL (unit assumed)
Method: as §1, §2

[5] = system: E. coli; assay: In vitro antimicrobial susceptibility (MIC), E. coli; format: cell-based; conditions: 10 isolates
Method: as §1, §2

[6] = Stability studies of finafloxacin formulations; format: physicochemical; conditions: aqueous solutions at pH between 5 and 6
Method: Exploratory stability studies were conducted to physical and chemical stability characteristics of formulations of the present invention.

[7] = Stability of finafloxacin free base polymorphs at high temperatures; format: physicochemical; conditions: temperatures such as those encountered during heat sterilization; compared with forms B and C
Description: A preferred form of finafloxacin for use in embodiments of the present invention is finafloxacin free base. At least three polymorphs of the finafloxacin free base have been identified (forms A, B, and C). […] The crystalline form of finafloxacin free base form A has an X-ray diffraction spectrum substantially the same as the X-ray powder diffraction spectrum shown in FIG. 1.

[8] = pH 5.8, in µg/mL (unit assumed)
[9] = pH 7.3, in µg/mL (unit assumed)

| MIC50 ([1]; pH 5.8) [µg/mL] | MIC90 ([1]; pH 5.8) [µg/mL] | MIC Range ([1]; pH 5.8) | MIC50 ([1]; pH 7.3) [µg/mL] | MIC90 ([1]; pH 7.3) [µg/mL] | MIC Range ([1]; pH 7.3) | MIC50 ([2]; pH 5.8) [µg/mL] | MIC90 ([2]; pH 5.8) [µg/mL] | MIC50 ([2]; pH 7.3) [µg/mL] | MIC90 ([2]; pH 7.3) [µg/mL] | MIC50 ([3]; pH 5.8) [µg/mL] | MIC90 ([3]; pH 5.8) [µg/mL] | MIC Range ([3]; pH 7.3) | MIC50 ([3]; pH 7.3) [µg/mL] | MIC90 ([3]; pH 7.3) [µg/mL] | MIC50 ([4]; pH 5.8) [µg/mL] | MIC50 ([4]; pH 7.3) [µg/mL] | MIC Range ([4]; pH 7.3) | MIC50 ([5]; pH 5.8) [µg/mL] | MIC90 [5, 8] | SMILES | other results |
| --- | --- | --- | --- | --- | --- | --- | --- | --- | --- | --- | --- | --- | --- | --- | --- | --- | --- | --- | --- | --- | --- |
| 1 (≈ 3.02 µM) | 8 (≈ 24.1 µM) | 0.125-8 | 0.5 (≈ 1.51 µM) | 2 (≈ 6.04 µM) | 0.063-2 | 64 (≈ 193 µM) | > 512 | 16 (≈ 48.3 µM) | 512 (≈ 1550 µM) | 128 (≈ 386 µM) | > 256 | 4-128 | 128 (≈ 386 µM) | 128 (≈ 386 µM) | 1 (≈ 3.02 µM) | 0.25 (≈ 0.754 µM) | 0.125-1 | 256 (≈ 773 µM) | >1024 | O=C(O)c1cn(C2CC2)c2cc(N3CCNCC3)c(F)cc2c1=O [Ciprofloxacin, ciprofloxacin] | MIC Range ([2]; pH 7.3): 4-512; MIC50 ([5]; pH 7.3): 16 µg/mL (≈ 48.3 µM); MIC Range ([5]; pH 7.3): ≦0.008-128; MIC90 [5, 9]: 128 |
| 1 (≈ 2.51 µM) | 4 (≈ 10 µM) | 0.25-4 | 4 (≈ 10 µM) | 16 (≈ 40.2 µM) | 2-16 | 16 (≈ 40.2 µM) | 512 (≈ 1290 µM) | 512 (≈ 1290 µM) | > 512 | 4 (≈ 10 µM) | 8 (≈ 20.1 µM) | 2-16 | 16 (≈ 40.2 µM) | 16 (≈ 40.2 µM) | 0.016 (≈ 0.0402 µM) | 0.125 (≈ 0.314 µM) | 0.016-0.25 | 4 (≈ 10 µM) | 8 | N#Cc1c(N2C[C@@H]3NCCO[C@H]3C2)c(F)cc2c(=O)c(C(=O)O)cn(C3CC3)c12 [Fina., 8-cyano-1-cyclopropyl-6-fluoro-7-[(4aS,7aS)-hexahydropyrrolo[3,4-b]-1,4-oxazin-6(2H)-yl]-1,4-dihydro-4-oxo-3-quinolinecarboxylic acid] | precipitate formation in stability studies [6]: precipitates form; MIC Range ([2]; pH 5.8): 2-512; MIC Range ([3]; pH 5.8): 0.5-8; MIC Range ([4]; pH 5.8): 0.008-0.125; MIC Range [5, 8]: 0.0078-8; MIC50 ([5]; pH 7.3): 32 µg/mL (≈ 80.3 µM); MIC90 [5, 9]: 64; MIC Range [5, 9]: 0.008-64 |
|  |  |  |  |  |  |  |  |  |  |  |  |  |  |  |  |  |  |  |  | N#Cc1c(N2C[C@@H]3NCCO[C@H]3C2)c(F)cc2c(=O)c(C(=O)O)cn(C3CC3)c12 [finafloxacin free base form A] | stability of polymorph at high temperatures [7]: most stable at high temperatures |

| SMILES | MIC50 ([1]; pH 5.8) [µg/mL] | MIC90 ([1]; pH 5.8) [µg/mL] | MIC Range ([1]; pH 5.8) | MIC50 ([1]; pH 7.3) [µg/mL] | MIC90 ([1]; pH 7.3) [µg/mL] | MIC Range ([1]; pH 7.3) | MIC50 ([2]; pH 5.8) [µg/mL] | MIC90 ([2]; pH 5.8) [µg/mL] | MIC50 ([2]; pH 7.3) [µg/mL] | MIC90 ([2]; pH 7.3) [µg/mL] | MIC50 ([3]; pH 5.8) [µg/mL] | MIC90 ([3]; pH 5.8) [µg/mL] | MIC Range ([3]; pH 7.3) | MIC50 ([3]; pH 7.3) [µg/mL] | MIC90 ([3]; pH 7.3) [µg/mL] | MIC50 ([4]; pH 5.8) [µg/mL] | MIC50 ([4]; pH 7.3) [µg/mL] | MIC Range ([4]; pH 7.3) | MIC50 ([5]; pH 5.8) [µg/mL] | MIC90 [5, 8] | other results |
| --- | --- | --- | --- | --- | --- | --- | --- | --- | --- | --- | --- | --- | --- | --- | --- | --- | --- | --- | --- | --- | --- |
| CC1COc2c(N3CCN(C)CC3)c(F)cc3c(=O)c(C(=O)O)cn1c23 (stereo not drawn) [Ofloxacin, ofloxacin] | 4 (≈ 11.1 µM) | 32 (≈ 88.6 µM) | 1-32 | 2 (≈ 5.53 µM) | 4 (≈ 11.1 µM) | 1-4 | 256 (≈ 708 µM) | > 512 | 64 (≈ 177 µM) | > 512 | 64 (≈ 177 µM) | > 512 | 2-256 | 32 (≈ 88.6 µM) | 256 (≈ 708 µM) | 1 (≈ 2.77 µM) | 0.25 (≈ 0.692 µM) | 0.125-0.5 | 512 (≈ 1420 µM) | 512 | MIC Range ([4]; pH 5.8): 0.5-64; MIC Range [5, 8]: 0.25-512; MIC50 ([5]; pH 7.3): 16 µg/mL (≈ 44.3 µM); MIC90 [5, 9]: 16; MIC Range [5, 9]: 0.016-16 |

Reference: US9504691B2, “Finafloxacin suspension compositions” (ALCON RESEARCH, LTD., priority 2012, dated 2016)
